Results taken from US20240279236A1, “COMPOUNDS AND METHODS OF TREATING TUBERCULOSIS” (Fimbrion Therapeutics, Inc., priority 2021, published 2024).

System: WT Mtb Erdman strain
Assay: Microplate Alamar Blue Assay (MABA), Mtb growth inhibition
Format: cell-based, Mycobacterium tuberculosis
Conditions: Mycobacterium tuberculosis, ERDMAN, 168 h, Middlebrook 7H9 media, 7 days at 37° C. in 5% CO2

Going from `Cc1cc2c(NCCCc3cccc4ccccc34)nc(C(F)(F)F)nc2s1` [Example 205, 6-methyl-N-(3-(naphthalen-1-yl)propyl)-2-(trifluoromethyl) thieno[2,3-d] pyrimidin-4-amine] to `Cc1ccc(-c2nc(NCCCc3ccccc3)c3cc(C)sc3n2)o1` [Example 132, 6-methyl-2-(5-methylfuran-2-yl)-N-(3-phenylpropyl)thieno [2,3-d]pyrimidin-4-amine], the IC50 rises from 1200 nM to 6600 nM (5.5-fold). The first is the more potent here.

First: Cc1cc2c(NCCCc3ccccc3)nc(C3CCOC3)nc2s1 (centres unmarked) [Example 120, 6-methyl-N-(3-phenylpropyl)-2-(tetrahydrofuran-3-yl)thieno[2,3-d]pyrimidin-4-amine]
Second: Cc1cc2c(NCCCc3ccccc3)nc(N3CCC3)nc2s1 [Example 510, 2-(azetidin-1-yl)-6-methyl-N-(3-phenylpropyl)thieno[2,3-d]pyrimidin-4-amine]
The IC50 of the first is 27-fold higher: 3000 nM for the first, 110 nM for the second. The second is the more potent here.

Compared with `CCc1nc(NCCS(=O)(=O)c2ccccc2)c2cc(C)sc2n1` [Example 68, 2-ethyl-6-methyl-N-(2-(phenylsulfonyl)ethyl) thieno[2,3-d]pyrimidin-4-amine], `Cc1cc2c(NCCCc3ccccc3)nc(S(C)(=O)=O)nc2s1` [Example 578, 6-methyl-2-(methylsulfonyl)-N-(3-phenylpropyl)thieno[2,3-d]pyrimidin-4-amine] is lower in IC50: greater than 10000 nM for the first, 4000 nM for the second. The second is the more potent here.

`Cc1cc2c(NCCCc3ccccc3)nc(-n3ccnn3)nc2s1` [Example 586, 6-methyl-N-(3-phenylpropyl)-2-(1H-1,2,3-triazol-1-yl)thieno[2,3-d]pyrimidin-4-amine] and `Cc1cc2c(NCCCc3ccccc3)nc(-c3ncon3)nc2s1` [Example 143, 6-methyl-2-(1,2,4-oxadiazol-3-yl)-N-(3-phenylpropyl)thieno [2,3-d]pyrimidin-4-amine] are within 1.5-fold of each other in IC50: 200 nM for the first, 220 nM for the second.

`CCc1nc(NCCCc2ccc(OC)c(F)c2)c2cc(C)sc2n1` [Example 260, 2-ethyl-N-(3-(3-fluoro-4-methoxyphenyl)propyl)-6-methylthieno[2,3-d]pyrimidin-4-amine] and `CCc1nc(NCCCc2ccc(N(C)C)cc2)c2cc(C)sc2n1` [Example 250, N-(3-(4-(dimethylamino)phenyl)propyl)-2-ethyl-6-methylthieno [2,3-d]pyrimidin-4-amine] are the same in IC50: 200 nM for the first, 200 nM for the second.

Compared with `C=Cc1nc(NCCCc2ccc(-c3ccc(OC(F)(F)F)cc3)cc2)c2cc(C)sc2n1` [Example 502, 2-ethenyl-6-methyl-N-(3-[4′-(trifluoromethoxy)-[1,1′-biphenyl]-4-yl]propyl)thieno[2,3-d]pyrimidin-4-amine], `Cc1cc2c(NCCCc3ccc(-c4ccc(OC(F)(F)F)cc4)cc3)nc(-n3ccnn3)nc2s1` [Example 602, 6-methyl-2-(1H-1,2,3-triazol-1-yl)-N-(3-(4′-(trifluoromethoxy)-[1,1′-biphenyl]-4-yl)propyl)thieno[2,3-d]pyrimidin-4-amine] is 32-fold higher in IC50: 6 nM for the first, 190 nM for the second.

`Cc1cc2c(NCCCc3ccc(-c4cnc(C5CC5)cn4)cc3)nc(-c3ccoc3)nc2s1` [Example 378, N-(3-[4-(5-cyclopropyl-pyrazin-2-yl)phenyl]propyl)-2-(furan-3-yl)-6-methylthieno[2,3-d]pyrimidin-4-amine] and `Cc1cc2c(NCCCc3ccc(-c4cnc(CO)cn4)cc3)nc(-c3ccoc3)nc2s1` [Example 403, (5-[4-(3-([2-(furan-3-yl)-6-methylthieno[2,3-d]pyrimidin-4-yl]amino)propyl)phenyl]pyrazin-2-yl)methanol] are within 1.5-fold of each other in IC50: 63 nM for the first, 70 nM for the second.

`COc1nc(NCCCc2ccc(-c3ccc(OC(F)(F)F)cc3)cc2)c2nc(C)sc2n1` [Example 547, 5-methoxy-2-methyl-N-(3-[4′-(trifluoromethoxy)-[1,1′-biphenyl]-4-yl]propyl)-[1,3]thiazolo[5,4-d]pyrimidin-7-amine] and `CCc1nc(NCCCc2ccc(-c3ccc(OC(F)(F)F)cc3F)cc2)c2cc(C)sc2n1` [Example 374, 2-ethyl-N-(3-(2′-fluoro-4′-(tri-fluoromethoxy)-[1,1′-biphenyl]-4-yl)propyl)-6-methylthieno[2,3-d]pyrimidin-4-amine] are within 1.5-fold of each other in IC50: 33 nM for the first, 30 nM for the second.

First: Cc1cc2c(NCCCc3ccccc3)nc(CC(C)C)nc2s1 [Example 134, 2-isobutyl-6-methyl-N-(3-phenylpropyl)thieno [2,3-d]pyrimidin-4-amine]
Second: CCSc1nc(NCCCc2ccccc2)c2cc(C)sc2n1 [Example 76, 2-(ethylthio)-6-methyl-N-(3-phenylpropyl)thieno [2,3-d]pyrimidin-4-amine]
The IC50 of the first is 4.8-fold higher: 440 nM for the first, 92 nM for the second. The second is the more potent here.

Compared with `Cc1cc2c(NCCCc3ccccc3)nc(N3CCN(C)CC3)nc2s1` [Example 508, 6-methyl-2-(4-methylpiperazin-1-yl)-N-(3-phenylpropyl)thieno[2,3-d]pyrimidin-4-amine], `CCc1nc(NC[C@@H]2C[C@H]2c2ccccc2)c2cc(C)sc2n1` (racemic) [Example 84, 2-ethyl-6-methyl-N-(((1S,2S)-2-phenylcyclopropyl)methyl)thieno[2,3-d]pyrimidin-4-amine] is lower in IC50: greater than 10000 nM for the first, 7700 nM for the second. The second is the more potent here.

Going from `Cc1cc2c(N[C@@H]3C[C@H]3c3ccc(F)c(F)c3)nc(OCC(F)(F)F)nc2s1` [Example 226, N-((1R,2S)-2-(3,4-difluorophenyl)cyclopropyl)-6-methyl-2-(2,2,2-trifluoroethoxy)thieno [2,3-d]pyrimidin-4-amine] to `Cc1cc2c(N[C@@H]3C[C@H]3c3ccc(F)c(F)c3)nc(N3CC(F)(F)C3)nc2s1` [Example 524, 2-(3,3-difluoroazetidin-1-yl)-N-((1R,2S)-2-(3,4-difluorophenyl)cyclopropyl)-6-methylthieno[2,3-d]pyrimidin-4-amine], the IC50 rises from 1200 nM to greater than 10000 nM.

Compared with `CCc1nc(NCCCc2ccc(-c3cc(Cl)cc(Cl)c3)cc2)c2cc(C)sc2n1` [Example 308, N-(3-(3′,5′-dichloro-[1,1′-biphenyl]-4-yl)propyl)-2-ethyl-6-methylthieno[2,3-d]pyrimidin-4-amine], `Cc1cc2c(NCCCc3ccc(-c4ccc(Cl)c(Cl)c4)cc3)nc(-c3ccoc3)nc2s1` [Example 298, N-(3-(3′,4′-dichloro-[1,1′-biphenyl]-4-yl)propyl)-2-(furan-3-yl)-6-methylthieno[2,3-d]pyrimidin-4-amine] is 9.2-fold lower in IC50: 240 nM for the first, 26 nM for the second.

`COc1ccc(CCCNc2nc(-c3ccccn3)nc3sccc23)cc1` [Example 29, N-(3-(4-methoxyphenyl)propyl)-2-(pyridin-2-yl)thieno[2,3-d]pyrimidin-4-amine] and `Cc1cc2c(NCCCc3ccc(O)cc3)nc(-c3ccc(F)cc3)nc2s1` [Example 83, 4-(3-((2-(4-fluorophenyl)-6-methylthieno[2,3-d]pyrimidin-4-yl)amino)propyl) phenol] are within 1.5-fold of each other in IC50: 2300 nM for the first, 2500 nM for the second.

Compared with `Cc1cc2c(NCCCCc3ccc(Br)cc3)nc(-c3ccoc3)nc2s1` [Example 207, N-(4-(4-bromophenyl)butyl)-2-(furan-3-yl)-6-methylthieno[2,3-d]pyrimidin-4-amine], `Cc1cc2c(N[C@@H]3C[C@H]3c3ccc(F)c(F)c3)nc(-c3ccnc(N(C)C)c3)nc2s1` [Example 491, N-((1R,2S)-2-(3,4-difluorophenyl)cyclopropyl)-2-(2-(dimethylamino)pyridin-4-yl)-6-methylthieno[2,3-d]pyrimidin-4-amine] is 13-fold higher in IC50: 350 nM for the first, 4400 nM for the second.

Work on `Cc1cc2c(N[C@H]3C[C@@H]3c3ccccc3)nc(C(F)(F)F)nc2s1` [Example 168, 6-methyl-N-((1S,2R)-2-phenylcyclopropyl)-2-(trifluoromethyl) thieno[2,3-d] pyrimidin-4-amine] yielded an IC50 of 3200 nM.
